From US6342360B1 (priority 1988, dated 2002)
pEC50, pKi: −log10 of the molar value. Values joined by “and” are separate entries in the source; they are usually repeats but may differ in a detail not shown here. Identical values can stand only once. “Also recorded” adds a separate entry of the source. Like-named read-outs stand apart in the source and are kept apart here.

Legend:
rat D2 dopamine receptor = rat D2 dopamine receptor (Rattus norvegicus, UniProt P61169)
Experimental: (§1) The homogenizing solution was centrifuged at 800×g for 10 min. and the pellet was subjected to a second homogenization and centrifugation as before. The supernatants were pooled and centrifuged at 200,000×g for 1 hour. […] In some experiments 100 uM guanosine 5′-triphosphate was included. […] Incubations were initiated by the addition of 15-40 μg of protein, carried out at 37° C. for 50 minutes, and stopped by the addition of 10 ml of ice-cold wash buffer (10 mM Tris, pH=7.4, and 0.9% NaCl) to each assay. The samples were filtered through glass-fiber filters (Schleicher and Schuell No. 30) and washed with an additional 10 ml of wash buffer. The radioactivity retained on the filter was counted using a Beckman LS 1701 scintillation counter. Data were analyzed as previously described (29) except that curves were drawn using the data analysis program Enzfitter. The resulting IC50 values were converted to Ki values by the method of Cheng and Prusoff (30).

[1] = system: D2 dopamine receptors in rat striatal membranes; assay: 3H-spiperone binding to rat striatal membranes; details: at the concentrations used
Experimental: as §1

[2] = target: human dopamine D2 receptor (Homo sapiens, UniProt P14416); assay: [3H]-domperidone binding to L-hPitD2Zem membranes
human dopamine D2 receptor, sequence (P14416 whole entry): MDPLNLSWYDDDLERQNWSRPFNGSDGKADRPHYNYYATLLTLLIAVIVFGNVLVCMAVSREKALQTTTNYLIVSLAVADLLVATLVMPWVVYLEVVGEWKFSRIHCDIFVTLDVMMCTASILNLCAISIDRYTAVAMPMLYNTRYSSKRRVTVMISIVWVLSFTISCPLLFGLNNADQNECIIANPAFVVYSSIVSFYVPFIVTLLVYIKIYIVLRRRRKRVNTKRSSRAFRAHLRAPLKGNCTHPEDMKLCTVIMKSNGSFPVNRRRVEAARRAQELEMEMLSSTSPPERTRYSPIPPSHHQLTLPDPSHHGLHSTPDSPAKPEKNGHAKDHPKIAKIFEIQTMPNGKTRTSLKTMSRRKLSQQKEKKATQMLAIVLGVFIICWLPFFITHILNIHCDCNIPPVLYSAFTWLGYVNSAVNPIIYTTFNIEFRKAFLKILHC
Experimental: The 2.5-kb human pituitary cDNA (hPitD2) was cloned into pZem3 (a gift from Dr. E. Mulvihill, Zymogenetics) and co-transfected with the pRSVneo gene into mouse Ltk^− cells by CaPo4 precipitation (10). A stable transfectant (L-hPitD2Zem) was selected and maintained in 750 μg/ml of G418 (Geneticin sulphate, Gibco). Twenty hours prior to the harvesting of membranes, these cells were incubated with 70 μM zinc sulphate. […] For the binding assays, membrane protein was used at 10-15 μg from L-hPitD2Zem, 50-75 μg from L-RGB2Zem-1, and 220-250 μg from rat striatum. […] The filters were washed twice in ice cold 50 mM Tris-HCl, pH 7.4. […] The Bmax, Kd, and IC50 values were determined as previously described (14).

dopamine-D2 receptor [3] = target: T1, dopamine-D2 receptor (Rattus norvegicus, UniProt P61169); assay: cAMP accumulation in GH4ZR7 cells
T1 sequence (P61169 1-415 isoform P61169-2): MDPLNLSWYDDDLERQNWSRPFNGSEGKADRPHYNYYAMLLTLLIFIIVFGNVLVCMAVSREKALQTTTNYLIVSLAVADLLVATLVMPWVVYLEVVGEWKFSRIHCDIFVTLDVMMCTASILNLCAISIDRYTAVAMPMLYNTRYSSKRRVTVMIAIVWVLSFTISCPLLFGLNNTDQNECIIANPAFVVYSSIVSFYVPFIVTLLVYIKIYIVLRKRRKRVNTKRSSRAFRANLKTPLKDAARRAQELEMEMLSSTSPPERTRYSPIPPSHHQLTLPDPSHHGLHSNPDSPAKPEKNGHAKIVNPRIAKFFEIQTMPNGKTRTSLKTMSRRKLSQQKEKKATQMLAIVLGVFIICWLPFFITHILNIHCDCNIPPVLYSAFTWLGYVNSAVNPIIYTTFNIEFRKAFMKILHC
Experimental: (§2) cAMP and PRL Assay: Cells were plated in 6-well, 35 mm dishes, 3-7 days prior to experimentation. Cells were pre-incubated in 2 ml/well warm F10+0.1% (−)-ascorbic acid+20 mM Tris (pH 7.2) (FAT) for 5-10 min, followed by addition of 1 ml/well of FAT+100 μm IBMX+experimental compounds, and incubated for 30 min. at 37° C. Experimental compounds were diluted 200- to 1000-fold from stock solutions made immediately prior to assay. […] Media were collected, and the cells were lysed immediately in 1 ml of boiling water. Cell lysates and media were centrifuged (2000×g, 10 min., 4° C.), and the supernatants collected for assay as cell extracts. Cell extracts and media samples were frozen at −20° C. until assay, if not assayed immediately. cAMP was assayed by a specific radioimmunoassay as described (22), with antibody used at 1:500 dilution. After 16 h incubation at 4° C., 20 μl of 10% BSA and 1 ml of 95% ethanol were added consecutively to precipitate the antibody-antigen complex. […] PRL was assayed in the media samples obtained as described above, except that IBMX was omitted during the 30 min incubation in FAT medium. PRL levels were determined by specific radioimmunoassay using Staphyloccus A lysate (IgSorb, The Enzyme Center, Malden, Mass.) to precipitate antigen-antibody complexes (23).

[4] = target: T2, rat dopamine D-2 receptor (Rattus norvegicus, UniProt P61169)
T2 sequence (P61169 1-415 isoform P61169-2): as above
Experimental: Receptor binding assay: The membrane preparation was thawed, centrifuged at 24,000×g for 20 min., and resuspended in Tris-isosaline except where indicated. […] Assays were carried out in duplicate in a volume of 2 ml for saturation analyses or 1 ml for inhibition analyses. Incubations were initiated by the addition of 15-50 μg of protein, carried out at 37° for 50 min., and stopped by the addition of 10 ml of ice-cold wash buffer (10 mM Tris, pH 7.4, and 0.9% NaCl) to each assay. The samples were filtered through glass-fibre filters (Schleicher & Schuell No. 30) and washed with an additional 10 ml of wash buffer. […] Data were analyzed by nonlinear regression using the data analysis program Enzfitter (Elsevier-Biosoft). […] Averages for KI and KD values are the geometric means. In experiments designed to assess the effect of GTP and NaCl on the binding of DA, fresh tissue was used. Cells were harvested, centrifuged, and Mg^2+ resuspended in Tris-Mg^2+ (50 mM Tris, pH 7.4, and 4 mM MgCl2). Tissue was incubated for 15 min. at 37° in this buffer before re-centrifugation.

dopamine-D2 receptor [5] = target: T1, dopamine-D2 receptor; assay: Adenylate cyclase activity in membranes from GH4ZR7 cells; assay type: biochemical; set-up: Full-length dopamine-D2 cDNA (17) was excised from λGT10 with Sal I; expressed in transfected cells; details: for efficacy: forskolin-stimulated adenylate cyclase
Experimental: Adenylate Cyclase Assay: The conversion of α^32P-ATP to ^32P-cAMP was determined essentially as described by Salomon et al. (24). […] Assays carried out in triplicate were initiated by warming to 25° C. and terminated by cooling to 0° C. Trichloroacetic acid (100 μl of 30% solution) was added to each assay, and ^3H-cAMP (30,000 cpm) was added to each tube as an internal standard. The assay volume was increased to 1 ml by addition of water, and tubes were centrifuged (2000 g×10 min). cAMP in the supernatant was isolated by sequential chromatography on columns containing Dowex AG50W-X4 resin and neutral alumina. The 2-ml eluate from each alumina columntwas dissolved in 10 ml of Bio-Safe II (RPI, Mount Prospect, Ill.) for liquid scintillation counting. Calculations: Data from cAMP and PRL assays are expressed as means±standard error for triplicate determinations. Curve-fitting parameters were obtained by nonlinear regression analysis using the Enzfitter program (Elsevier Biosoft). Average affinity, EC50 and IC50 values are geometric means of the indicated number of experiments. In competition experiments, KI values were calculated from experimentally determined IC50 values by the method of Cheng and Prusoff (25).

[6] = target: T2, rat dopamine D-2 receptor; details: for blockade of inhibition of adenylate cyclase by 10 μM DA: 10 μM (+)-butaclamol in assay, pertussis toxin 50 ng/ml 16 hours on cells
Experimental: Adenylate cyclase assay: The conversion of [α^32P]ATP to [^32P]cAMP was determined essentially as described by Salomon et al. (14). […] Assays were initiated by warming to 25° and terminated after 20 minutes by cooling to 0°, then adding trichloroacetic acid (100 μl of a 30% solution) to each assay. [^3H]Cyclic AMP (approximately 30,000 cpm) was added to each assay as an internal standard. The assay volume was brought up to 1 ml with water, and tubes were centrifuged for 10 min. at 2000×g. Cyclic AMP in the supernatant was isolated by sequential chromatography on columns containing Dowex AG50W-X4 resin and neutral alumina. The 2-ml eluate from each column of alumina was dissolved in 10 ml of Bio-Safe II (RPI, Mount Prospect, Ill.) for liquid scintillation counting. Dose-response curves for inhibition of adenylate cyclase activity by agonists were analyzed by nonlinear regression using the program Enzfitter. The data were fit to the equation:
where E is the amount of enzyme activity, expressed as percentage of total stimulated activity, A is the concentration of agonists, EC50 is the concentration of agonist causing half-maximal inhibition of enzyme activity, Emax is the enzyme activity observed in the presence of maximally inhibiting concentrations of agonist, expressed as the percentage of total stimulated activity, and N is a slope factor. Averages of EC50 values are the geometric means.

dopamine-D2 receptor [7] = target: T1, dopamine-D2 receptor; assay: Acute PRL release in GH4ZR7 cells; assay type: cell-based; set-up: Full-length dopamine-D2 cDNA (17) was excised from λGT10 with Sal I; expressed in transfected cells; details: 30 min
Experimental: as §2

rat D2 dopamine receptor, sequence (P61169 1-415 isoform P61169-2): as above
Experimental for GH4C1 cells: as §2

Molecule: O=C(c1ccc(F)cc1)C1CCN(CCn2c(=O)[nH]c3ccccc3c2=O)CC1 [ketanserin]
- potency at inhibiting 3H-spiperone binding (rat D2 dopamine receptor; L-RGB2Zem-1 membranes): much less potent

Molecule: CCN1CCCC1CNC(=O)c1cc(S(N)(=O)=O)ccc1OC (centres unmarked) [sulpiride]
- share of (+)-butaclamol-displaceable binding not inhibited [1]: 10-15%

Molecule: CN1CCN2c3ccccc3Cc3ccccc3C2C1 (centres unmarked) [mianserin]
- inhibition of domperidone binding ([2]; [3H]-domperidone 1 nM): only at very high concentrations

Molecule: CCN1CCC[C@H]1CNC(=O)c1cc(S(N)(=O)=O)ccc1OC [(−)-sulpiride]
- blockade of dopamine inhibition of cAMP accumulation (dopamine-D2 receptor [3]): blocked dopamine action
- effect of antagonist alone on basal cAMP (dopamine-D2 receptor [3]; absence of dopamine): did not alter basal cAMP levels

Molecule: CCCN1CCCC(c2cccc(O)c2)C1 (single isomer, unassigned; (-)) [(−)3-PPP, 3-(3-hydroxyphenyl)-N-n-propylpiperidine]
- Hill coefficient ([4]; single experiment FIG. 9A): 0.89
- efficacy (dopamine-D2 receptor [5]): did not consistently reduce

Molecule: O=C(CCCN1CCC2(CC1)C(=O)NCN2c1ccccc1)c1ccc(F)cc1 [spiperone]
- blockade of dopamine inhibition of cAMP accumulation (dopamine-D2 receptor [3]): blocked dopamine action
- effect of antagonist alone on basal cAMP (dopamine-D2 receptor [3]): did not alter basal cAMP levels

Molecule: CCN1CCCC1CNC(=O)c1cc(S(N)(=O)=O)ccc1OC (single isomer, unassigned; (+)) [(+)-sulpiride]
- blockade of dopamine inhibition of cAMP accumulation (dopamine-D2 receptor [3]): did not block; also recorded: little or no effect

Molecule: NCCc1ccc(O)c(O)c1 [dopamine]
- effect on basal, VIP-stimulated or TRH-stimulated PRL secretion (GH4C1 cells; GH4C1 cells, data not shown): no effect
- effect on extracellular cAMP levels (GH4C1 cells; wild-type GH4C1 cells, VIP omitted or present): no effect

Molecule: CC(C)C[C@H]1C(=O)N2CCC[C@H]2[C@]2(O)O[C@](NC(=O)[C@@H]3C=C4c5cccc6[nH]c(Br)c(c56)C[C@H]4N(C)C3)(C(C)C)C(=O)N12 [bromocriptine]
- pKi ([4]; [3H]spiroperidol 0.2 nM, GTP and NaCl present, geometric mean of 2 experiments): 8.62
- rank among the six compounds tested ([4]; inhibition of radioligand binding, LZR1): most potent
- pKi ([4]; read-out: KI for inhibition of [3H]spiroperidol binding, single experiment FIG. 9A, radioligand 230 pM): 8.30
- pKi ([4]; read-out: mean KI, 0.1 mM GTP and 120 mM NaCl, LZR1 membranes): 8.70
- Hill coefficient ([4]; single experiment FIG. 9A): 1.05
- inhibition of forskolin-stimulated adenylate cyclase activity (dopamine-D2 receptor [5]): 23%
- maximal inhibition (dopamine-D2 receptor [5]): 23%
- pEC50 (dopamine-D2 receptor [5]; read-out: EC50): 8.22
- pEC50 (dopamine-D2 receptor [5]; read-out: EC50, inhibition of adenylate cyclase): 8.30
- pEC50 [6]: 7.35 and 7.40
- Max (maximal inhibition of adenylate cyclase activity) [6]: 17 ± 1%
- agonist activity / efficacy [6]: less efficacious than DA

Molecule: CCCN1CCCC(c2cccc(O)c2)C1 (single isomer, unassigned; (+)) [(+)3-PPP, 3-(3-hydroxyphenyl)-N-n-propylpiperidine]
- efficacy (dopamine-D2 receptor [5]): as efficacious as dopamine

Molecule: pertussis toxin
- effect of pretreatment on dopamine inhibition of forskolin-stimulated adenylate cyclase (dopamine-D2 receptor [5]; pertussis toxin 16 h): uncoupled
- effect of pretreatment on inhibition of basal and VIP-stimulated cAMP by dopamine (dopamine-D2 receptor [3]; pertussis toxin 50 ng/ml, 16 h): abolished
- blockade of inhibition of adenylate cyclase by 10 μM DA [6]: blocked
- forskolin-stimulated adenylate cyclase activity versus control membranes ([6]; membranes from pertussis toxin-treated cells): approximately 2.5 fold

Molecule: (−)-butaclamol
- inhibition of domperidone binding [2]: only at very high concentrations

Molecule: (+)-butaclamol
- potency at inhibiting 3H-spiperone binding (rat D2 dopamine receptor): most potent inhibitors
- blockade of inhibition of adenylate cyclase by 10 μM DA [6]: prevented

Molecule: VIP: vasoactive intestinal peptide
- total adenylate cyclase activity stimulated (dopamine-D2 receptor [5]; 200 nM VIP, n=3): 22±7 pmol/mg protein/min
- enhancement of PRL secretion (dopamine-D2 receptor [7]): 1.5 fold
- VIP-induced enhancement of cAMP levels (dopamine-D2 receptor [3]): 8-12 times basal levels
